Experimental findings from patent US20090111822A1, “1,2,3-TRIAZOLE PYRROLIDINE DERIVATIVES AS MODULATORS OF MGLUR5” (AstraZeneca AB, priority 2007, published 2009) are described below.

Data set [1] concerns the target T1, human mGluR5d (Homo sapiens, UniProt P41594).
T1 construct: expressed in transfected cells; The culture medium holds Hygromycin B and Zeocin, which points to a stably transfected line
Description: FLIPR assay, mGluR5 antagonism (intracellular calcium mobilization). It is filed as cell-based. The settings on record: cells expressing human mGluR5d; read-out: FLIPR hmGluR5d. The text has this: Functional Assessment of mGluR5 Antagonism in Cell Lines Expressing mGluR5D
The properties of the compounds of the invention can be analyzed using standard assays for pharmacological activity. Examples of glutamate receptor assays are well known in the art as described in for example Aramori et al, Neuron 8:757 (1992), Tanabe et al., Neuron 8:169 (1992), Miller et al., J. Neuroscience 15: 6103 (1995), Balazs, et al., J. Neurochemistry 69:151 (1997). The methodology described in these publications is incorporated herein by reference. […]
Cells expressing human mGluR5d as described in WO97/05252 cultured in a mixture of high glucose DMEM with Glutamax (31966-021) (500 mL), 10% dialyzed fetal bovine serum (Hyclone #SH30079.03) (56 mL), 200 μg/mL Hygromycin B (Invitrogen 45-0430, 50 mg/mL) (2.2 mL), 200 μg/mL Zeocin (Invitrogen #R250-01; 100 mg/mL) (1.1 mL) are seeded at a density of 100,000 cells per well on collagen coated clear bottom 96-well plates with black sides and cells were allowed to adhere over night before experiments. […] The fluorescence signal is sampled 50 times at 1-second intervals followed by 3 samples at 5-second intervals immediately after each of the two additions. Responses are measured as the difference between the peak heights of the response to agonist, less the background fluorescence within the sample period. […]

A short description of data set [2]: Determination of brain to plasma ratio in rat. It is filed as in vivo. The settings on record: brain and plasma, female Sprague Dawley rats, drug in brain over drug in plasma, read-out: Brain/Plasma Ratio of compound in Rat. The procedure:
Brain to plasma ratios are estimated in female Sprague Dawley rats. The compound is dissolved in water or another appropriate vehicle. For determination of brain to plasma ratio the compound is administrated as a subcutaneous, or an intravenous bolus injection, or an intravenous infusion, or an oral administration. At a predetermined time point after the administration a blood sample is taken with cardiac puncture. The rat is terminated by cutting the heart open, and the brain is immediately retained. The blood samples are collected in heparinized tubes and centrifuged within 30 minutes, in order to separate the plasma from the blood cells. The plasma is transferred to 96-well plates and stored at −20° C. until analysis. The brains are divided in halt and each half is placed in a pre-tarred tube and stored at −20° C. until analysis. Prior to the analysis, the brain samples are thawed and 3 mL/g brain tissue of distilled water is added to the tubes. The brain samples are sonicated in an ice bath until the samples are homogenized. Both brain and plasma samples are precipitated with acetonitrile. After centrifugation, the supernatant is diluted with 0.2% formic acid. […] After reconstitution of the residuals the samples are ready for injection onto the HPLC column.

T1 sequence (P41594 21-942 isoform P41594-3 limits assumed): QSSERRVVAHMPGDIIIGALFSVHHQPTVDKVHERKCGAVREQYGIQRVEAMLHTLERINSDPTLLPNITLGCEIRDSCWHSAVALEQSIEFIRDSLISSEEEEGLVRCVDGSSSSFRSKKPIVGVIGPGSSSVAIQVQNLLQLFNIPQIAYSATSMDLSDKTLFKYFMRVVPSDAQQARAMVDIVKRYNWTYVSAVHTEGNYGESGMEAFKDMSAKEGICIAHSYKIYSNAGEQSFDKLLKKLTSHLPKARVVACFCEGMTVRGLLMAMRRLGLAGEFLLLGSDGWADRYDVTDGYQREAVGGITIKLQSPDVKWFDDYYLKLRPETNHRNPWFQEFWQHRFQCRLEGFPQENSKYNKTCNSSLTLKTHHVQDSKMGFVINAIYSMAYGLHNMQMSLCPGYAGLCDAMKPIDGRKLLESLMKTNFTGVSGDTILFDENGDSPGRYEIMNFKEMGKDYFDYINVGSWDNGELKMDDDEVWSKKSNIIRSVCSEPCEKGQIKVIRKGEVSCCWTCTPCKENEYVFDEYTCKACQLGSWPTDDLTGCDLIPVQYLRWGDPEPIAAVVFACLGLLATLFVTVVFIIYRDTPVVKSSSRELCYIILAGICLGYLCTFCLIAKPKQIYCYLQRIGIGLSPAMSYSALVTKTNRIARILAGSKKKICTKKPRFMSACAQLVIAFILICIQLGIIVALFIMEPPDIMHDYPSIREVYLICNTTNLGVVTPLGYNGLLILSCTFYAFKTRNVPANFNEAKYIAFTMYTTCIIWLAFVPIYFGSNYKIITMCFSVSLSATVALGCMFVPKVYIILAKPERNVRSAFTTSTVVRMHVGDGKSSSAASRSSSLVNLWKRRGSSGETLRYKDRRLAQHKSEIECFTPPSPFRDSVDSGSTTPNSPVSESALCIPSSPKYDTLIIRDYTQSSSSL

On to `Cn1c(-c2ccncc2)nnc1N1CCC[C@@H]1c1cn(-c2cccc(Cl)c2)nn1` [Example 8.1, 4-(5-{(2R)-2-[1-(3-Chlorophenyl)-1H-1,2,3-triazol-4-yl]pyrrolidin-1-yl}-4-methyl-4H-1,2,4-triazol-3-yl)pyridine], for which, in data set [1], the IC50 came to 58 nM. Besides, the Kp in data set [2] is 0.03.
Regarding `Cn1c(-c2cccnc2)nnc1N1CCC[C@@H]1c1cn(-c2cccc(Cl)c2)nn1` [Example 8.2, 3-(5-{(2R)-2-[1-(3-chlorophenyl)-1H-1,2,3-triazol-4-yl]pyrrolidin-1-yl}-4-methyl-4H-1,2,4-triazol-3-yl)pyridine], the IC50 in data set [1] is 116 nM. Besides, the Kp in data set [2] was below 0.015.
